US20240262842A1, “SMALL MOLECULE INHIBITORS OF KRAS G12C MUTANT” (Merck Sharp & Dohme LLC, priority 2021, published 2024)
Like-named read-outs stand apart in the source and are kept apart here.

Experiments:
[1] = target: T1, interaction between GMPPNP-bound recombinant K-Ras4B G12C mutant protein and cRAF RAS-binding domain (cRAF-RBD) (Homo sapiens, UniProt P01116, G12C); test: Inhibitory activity on interaction between KRAS G12C and cRAF (Alpha technology); details: Table 2-1
T1 construct: His-tag (N)
T1 sequence (P01116 with tags, fused parts or gaps isoform P01116-2 G12C): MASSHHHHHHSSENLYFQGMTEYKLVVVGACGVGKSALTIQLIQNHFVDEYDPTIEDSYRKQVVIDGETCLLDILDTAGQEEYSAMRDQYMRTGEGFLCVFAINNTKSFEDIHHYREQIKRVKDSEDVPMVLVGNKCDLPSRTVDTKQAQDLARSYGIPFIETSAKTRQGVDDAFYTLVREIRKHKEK
Outline: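 Alpha signal measured 1.5 h after adding cRAF-RBD (aa 50-132) and detection reagents to GMPPNP-bound KRAS G12C (aa 1-169) pretreated 1 h at 25° C with compound (pH 7.5 buffer). 0% inhibition = DMSO, 100% = GDP-loaded KRAS; IC50 by curve fit.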

MIA PaCa-2 cells = test: Growth inhibition activity on KRAS-G12C mutant cell line (CellTiter-Glo 3D); type: cell-based, human; details: Homo sapiens, MIA PaCa-2, 72 h, MIA PaCa-2, 3-day culture with compound; Table 3-1
Outline: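 IC50 (nM) derived from inhibition of luminescence (CellTiter-Glo 3D) relative to compound-free wells. Cells were seeded in U-bottom plates, grown 1 day, then exposed to compound for 3 days at 37 °C with 0.2% final DMSO.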

[2] = GMPPNP-bound KRAS G12C incubated with compound 25° C. 1 hour, read-out: IC50

Cc1cc2c(nc(C)n2C)c2c1-c1cccc3c(C(=O)c4cc(F)c(NC(=O)/C=C/CN[C@H]5[C@@H]6COC[C@@H]65)c(F)c4)cn(c13)CCN2C [Example 143, (E)-4-(((1R,5S,6r)-3-oxa-bicyclo[3.1.0]hexan-6-yl)amino)-N-(2,6-difluoro-4-(6,8,9,11-tetramethyl-8,11,12,13-tetrahydro-imidazo[4″,5″:5′,6′]benzo-[1′,2′:5,6][1,4]diazocino-[7,8,1-hi]indole-2-carbon-yl)phenyl)but-2-enamide]
IC50 ([1]; IC50, GMPPNP-bound KRAS G12C incubated with compound 25° C. 1 hour): 17.8 nM
IC50 (MIA PaCa-2 cells): 47.7 nM

Cc1c2cc(C(F)(F)F)c3c(c2nn1C)N(C)CCc1cc(C(=O)c2cc(F)c(NC(=O)/C=C/CNC4(C)COC4)c(F)c2)n2cccc-3c12 [Example 146, (E)-N-(2,6-difluoro-4-(9,10,12-trimethyl-7-(trifluoromethyl)-10,12,13,14-tetrahydroindolizino[8′,1′:4,5,6]azocino[3,2-g]indazole-2-carbonyl)phenyl)-4-((3-methyloxetan-3-yl)amino)but-2-enamide]
IC50 [1, 2]: 20.4 nM
IC50 (MIA PaCa-2 cells): 19.6 nM

Cn1cnc2c3c(c(C(F)(F)F)cc21)-c1cccn2c(C(=O)c4cc(F)c(NC(=O)/C=C/CN[C@H]5[C@@H]6COC[C@@H]65)c(F)c4)cc(c12)CCO3 [Example 147, (E)-4-(((1R,5S,6r)-3-oxa-bicyclo[3.1.0]hexan-6-yl)amino)-N-(2,6-difluoro-4-(9-methyl-7-(trifluoro-methyl)-13,14-dihydro-9H-imidazo[4″,5″:5′,6′]-benzo[1′,2′:2,3]oxocino-[4,5,6-hi]indolizine-2-carbonyl)phenyl)but-2-enamide]
IC50 [1, 2]: 7.49 nM
IC50 (MIA PaCa-2 cells): 15.3 nM

Cc1nc2c3c(c(C(F)(F)F)cc2n1C)-c1cccn2c(C(=O)c4cc(F)c(NC(=O)C=CCNC5CCOC5)c(F)c4)nc(c12)CCN3C [Example 148, (S,E)-N-(2,6-difluoro-4-(8,9,11-trimethyl-6-(trifluoromethyl)-8,11,12,13-tetrahydro-1,2a,8,10,11-pentaazacycloocta[1,2,3-cd:5,4-e′]diindene-2-carbonyl)phenyl)-4-((tetrahydrofuran-3-yl)amino)but-2-enamide]
IC50 [1, 2]: 23.2 nM
IC50 (MIA PaCa-2 cells): 19.1 nM

Cn1cnc2c3c(c(C(F)(F)F)cc21)-c1cccn2c(C(=O)c4cc(F)c(NC(=O)/C=C/CN5CCCC5)c(F)c4)cc(c12)CCO3 [Example 149, (E)-N-(2,6-difluoro-4-(9-methyl-7-(trifluorometh-yl)-13,14-dihydro-9H-imidazo[4″,5″:5′,6′]benzo-[1′,2′:2,3]oxocino[4,5,6-hi]indolizine-2-carbonyl)-phenyl)-4-(pyrrolidin-1-yl)but-2-enamide]
IC50 [1, 2]: 23.7 nM
IC50 (MIA PaCa-2 cells): 23.4 nM

Cn1cnc2c3c(c(C(F)(F)F)cc21)-c1cccn2c(C(=O)c4cc(F)c(NC(=O)/C=C/CN5CC[C@H](O)C5)c(F)c4)cc(c12)CCO3 [Example 150, (S,E)-N-(2,6-difluoro-4-(9-methyl-7-(trifluoro-methyl)-13,14-dihydro-9H-imidazo[4″,5″:5′,6′]-benzo[1′,2′:2,3]oxocino-[4,5,6-hi]indolizine-2-carbonyl)phenyl)-4-(3-hydroxypyrrolidin-1-yl)-but-2-enamide]
IC50 [1, 2]: 17.1 nM
IC50 (MIA PaCa-2 cells): 31.2 nM

Cn1cnc2c3c(c(C(F)(F)F)cc21)-c1cccn2c(C(=O)c4cc(F)c(NC(=O)/C=C/CN5CC[C@@H](O)C5)c(F)c4)cc(c12)CCO3 [Example 151, (R,E)-N-(2,6-difluoro-4-(9-methyl-7-(trifluoro-methyl)-13,14-dihydro-9H-imidazo[4″,5″:5′,6′]-benzo[1′,2′:2,3]oxocino-[4,5,6-hi]indolizine-2-carbonyl)phenyl)-4-(3-hydroxypyrrolidin-1-yl)-but-2-enamide]
IC50 [1, 2]: 15.5 nM
IC50 (MIA PaCa-2 cells): 33.9 nM
